Measured values from patent US20210323908A1, “PROCESS FOR PRODUCING TCA CYCLE INTERMEDIATE CONJUGATES” (IMBRIA PHARMACEUTICALS, INC., priority 2020, published 2021).

How the values were obtained:
Assay type in all cases: physicochemical
[1] = Solubility of the Type A crystal polymorph (stated as a conclusion, no method given); conditions: solid crystal polymorph identified as Type A
[2] = Decomposition of the product in hot water, observed during work-up; conditions: in water at 70-80° C.
Description: The reaction mixtures were filtered to remove solvents. The wet cake was charged to a reactor. […] 6 kg of MS001 Silica Thiol was added to the filtrate at about 60-70° C., stirred for 1 hour, and filtered through a pad of fresh Celite.
A total of 20 kg of a compound of Formula (X) was made from 56.6 kg of a compound of Formula (IV), with 98.0% and a 73.5% yield. The yield of the manufacture is consistent to the Lab batch.

[3] = Stability of the Type A crystal polymorph (stated as a conclusion, no method given); conditions: solid crystal polymorph identified as Type A

Compound: N[C@@H](COC(=O)CCC(=O)O)C(=O)O [Formula (X)]
- solubility of the solid crystal polymorph Type A [1]: soluble
- stability in water at elevated temperature [2]: could be decomposed in water
- stability of the solid crystal polymorph Type A [3]: highly stable
